Data published in patent US20200197355A1, “METHODS, COMPOSITIONS AND CONTAINERS FOR REDUCING SOLID FORM QUERCETIN DEGRADATION AND 2-(3,4-DIHYDROXYBENZOYLOXY)-4,6-DIHYDROXYBENZOIC ACID TOXIC BYPRODUCTS THEREOF” (PUBLIC JOINT STOCK COMPANY "SCIENTIFICINDUSTRIALCENTRE …, priority 2018, published 2020).
≈ marks a conversion by molar mass, not a printed value.

What was measured:
[1] = system: MDA-MB231 human breast cancer cells; experiment: Toxicity of DB-DBA, CellTiter 96 AQueous One Solution cell viability assay, 72 h; format: cell-based; settings: Homo sapiens, MDA-MB-231; MDA-MB231, 72 h, 37° C.
Method: (§1) Toxicity of DB-DBA (2-(3,4-dihydroxybenzoyloxy)-4,6-dihydroxybenzoic acid) was assessed in 96-well plates (Thermofisher, Walthman, Mass.) on 1×10^3 MDA-MB231 human breast cancer cells/well. DB-DBA was diluted to concentrations from 500 to 20 ug/ml. The plate was incubated at 37° C. for 72 h. Cell viability was measured in a CellTiter 96® AQueous One Solution Cell Proliferation Assay (Promega, Madison, Wis.), according to the manufacturer's protocol.

[2] = as above; format: cell-based, human; settings: human, MDA-MB231 breast cancer cells, 72 h
Method: as §1

[3] = humans, cited from earlier work
[4] = system: human lymphoblastoid TK6 cells; settings: cited from earlier work
[5] = system: human lymphoblastoid TK6 cells; settings: cited from earlier work; remark: listed apart in the source
[6] = system: retinal pigmented epithelial cells (ARPE-19); settings: cited from earlier work
[7] = system: human lymphoblastoid cell line K562; settings: cited from earlier work

Question: Which IC50 [1] does the source give for O=C(Oc1cc(O)cc(O)c1C(=O)O)c1ccc(O)c(O)c1 [DB-DBA, 2-(3,4-dihydroxybenzoyloxy)-4,6-dihydroxybenzoic acid] here?
Answer: 75 µg/mL (≈ 245 µM)

Question: And the viability at 72 h, 20 microgram/ml ([2]; DB-DBA 20 microgram/ml)?
Answer: 95%

Question: What about the viability at 72 h, 50 microgram/ml ([2]; DB-DBA 50 microgram/ml) of the same compound?
Answer: 62%

Question: And the viability at 72 h, 100 microgram/ml ([2]; DB-DBA 100 microgram/ml)?
Answer: 41%

Question: What about the viability at 72 h, 250 microgram/ml ([2]; DB-DBA 250 microgram/ml) of the same compound?
Answer: 19%

Question: And the viability at 72 h, 500 microgram/ml ([2]; DB-DBA 500 microgram/ml)?
Answer: 10%

Question: For O=c1c(O)c(-c2ccc(O)c(O)c2)oc2cc(O)cc(O)c12 [quercetin, 2-(3,4-dihydroxyphenyl)-3,5,7-trihydroxy-4H-chromen-4-one], which elimination half-life ([3]; after ingestion in foods or supplements) is on record?
Answer: 1 to 2 h

Question: And the bioavailability [3]?
Answer: 0-50%

Question: What does the source list for O=C(O)c1cc(O)c(O)c(OC(=O)c2cc(O)c(O)c(O)c2)c1 [DGA, Digallic acid]?
Answer: concentrations causing DNA fragmentation, caspase-3/8 activation and PARP cleavage [4]: 2.5-10 microgram/ml; IC50 by MTT assay [5]: 8.5 microgram/ml; IC50 (cytotoxicity) [6]: 47 microgram/ml; concentrations causing DNA fragmentation [7]: 200-800 microgram/ml
